Assay results reported in US20250264461A1, “NANOVESICLE COMPRISING HETERODIMERIC G-PROTEIN COUPLED RECEPTOR, METHOD FOR PREPARING NANOVESICLE, FIELD EFFECT TRANSISTOR-BASED TASTE SENSOR COMPRISING NANOVESICLE, AND METHOD FOR MANUFACTURING TASTE SENSOR” (Seoul National University R&DB Foundation, priority 2013, published 2025).
Blank lines part the entries; values can stand above or below the molecule they belong to. Peptide text beside a SMILES is read from it.

How the values were obtained:
[1] = target: T1, sweet taste substance receptor protein (hTAS1R2 and hTAS1R3) (Homo sapiens, UniProt Q7RTX0+Q8TE23); assay: nanovesicle based field effect transistor taste sensor, real-time source-drain current / conductance; assay type: biochemical; conditions: for signal change: 100 mM added
T1 construct: HA (N); expressed in transfected cells
T1 sequence (Q8TE23 20-839): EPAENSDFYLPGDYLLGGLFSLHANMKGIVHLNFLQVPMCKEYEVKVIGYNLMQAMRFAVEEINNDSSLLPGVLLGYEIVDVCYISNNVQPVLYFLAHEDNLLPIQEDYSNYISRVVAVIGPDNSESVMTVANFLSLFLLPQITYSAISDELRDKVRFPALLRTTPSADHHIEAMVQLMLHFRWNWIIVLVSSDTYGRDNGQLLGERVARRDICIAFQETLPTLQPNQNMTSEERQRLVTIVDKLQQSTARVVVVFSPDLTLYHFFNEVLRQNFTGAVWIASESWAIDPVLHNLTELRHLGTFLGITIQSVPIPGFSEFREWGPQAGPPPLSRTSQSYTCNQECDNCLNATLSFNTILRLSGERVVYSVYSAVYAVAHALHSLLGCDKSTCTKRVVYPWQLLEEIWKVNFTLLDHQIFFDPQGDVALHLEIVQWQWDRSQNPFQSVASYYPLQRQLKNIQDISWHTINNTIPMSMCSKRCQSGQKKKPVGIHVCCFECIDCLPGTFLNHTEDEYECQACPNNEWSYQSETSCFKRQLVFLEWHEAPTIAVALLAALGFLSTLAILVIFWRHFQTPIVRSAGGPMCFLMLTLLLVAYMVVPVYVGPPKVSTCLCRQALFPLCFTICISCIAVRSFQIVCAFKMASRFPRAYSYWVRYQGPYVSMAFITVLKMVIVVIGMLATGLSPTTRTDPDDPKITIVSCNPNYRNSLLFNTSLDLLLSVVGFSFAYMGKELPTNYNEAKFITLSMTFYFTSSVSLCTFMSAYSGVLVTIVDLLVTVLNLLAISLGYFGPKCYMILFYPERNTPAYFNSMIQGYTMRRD
T1 sequence (Q7RTX0 21-852): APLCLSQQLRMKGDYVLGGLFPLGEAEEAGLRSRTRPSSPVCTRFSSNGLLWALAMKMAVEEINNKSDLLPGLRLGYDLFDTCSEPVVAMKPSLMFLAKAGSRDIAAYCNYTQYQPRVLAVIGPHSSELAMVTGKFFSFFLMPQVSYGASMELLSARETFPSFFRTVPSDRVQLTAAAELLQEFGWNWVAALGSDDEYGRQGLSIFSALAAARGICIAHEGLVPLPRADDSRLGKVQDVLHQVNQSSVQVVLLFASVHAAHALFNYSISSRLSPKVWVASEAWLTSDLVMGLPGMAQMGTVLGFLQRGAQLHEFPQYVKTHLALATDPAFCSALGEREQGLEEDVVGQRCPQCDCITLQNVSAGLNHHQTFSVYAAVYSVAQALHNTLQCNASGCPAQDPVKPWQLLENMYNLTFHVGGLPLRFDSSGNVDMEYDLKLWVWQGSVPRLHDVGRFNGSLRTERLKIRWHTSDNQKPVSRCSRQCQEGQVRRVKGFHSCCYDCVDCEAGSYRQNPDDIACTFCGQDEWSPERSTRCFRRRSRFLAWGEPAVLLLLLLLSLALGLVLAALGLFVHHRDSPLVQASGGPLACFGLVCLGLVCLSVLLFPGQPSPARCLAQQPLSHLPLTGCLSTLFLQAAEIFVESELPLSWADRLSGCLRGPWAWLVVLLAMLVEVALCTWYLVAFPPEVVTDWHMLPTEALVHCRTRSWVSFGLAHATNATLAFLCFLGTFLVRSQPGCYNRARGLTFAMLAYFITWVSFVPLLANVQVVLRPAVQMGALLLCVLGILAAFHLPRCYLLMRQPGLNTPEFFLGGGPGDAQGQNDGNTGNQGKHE

[2] = target: T1, sweet taste substance receptor protein (hTAS1R2 and hTAS1R3); assay: as above; assay type: biochemical; conditions: for fit of sensor signals to the hill equation model: FIG. 4C; for signal generating from the taste sensor (sensitivity ΔG/G0): FIG. 3C
Method: A sweet taste substance (Sigma Aldrich, USA) with a 1 mM concentration was dissolved into PBS (phosphate buffered saline; Gibco, USA) containing 2 mM CaCl2 therein. The resulting solution was sequentially diluted 1/10 times to acquire a diluent. The diluent was exposed to the nanovesicle based field effect transistor manufactured in the embodiment 2. A current between the source electrode and drain electrode was measured in a real time manner to check a reaction magnitude. A sensitivity ΔG/G0 of a sweet taste substance relative to sucrose in the nanovesicle based field effect transistor was measured in a real time manner.

[3] = target: T2, heterodimeric receptor including the hTAS1R2 and hTAS1R3 (Homo sapiens, UniProt Q7RTX0+Q8TE23); assay: Ca2+ dependent fluorescence signal in transformed HEK-293 cell line; assay type: cell-based; conditions: 10 mM sucrose added, Fura 2-AM, ratio of 340/380 nm stimulation, emission 510 nm, FIG. 2C
T2 construct: HA (N); expressed in transfected cells
T2 sequence (Q8TE23 20-839): T1 sequence (Q8TE23 20-839)
T2 sequence (Q7RTX0 21-852): T1 sequence (Q7RTX0 21-852)
Method: (§1) A signal transfer via a sweet taste substance of each of the nanovesicle and HEK-293 cell was checked wherein the HEK-293 cell has the expressed heterodimeric receptor including the hTAS1R2 and hTAS1R3 manufactured in the embodiment 1, and the nanovesicle is separated from the HEK-293 cell.
(§2) For this, the transformed HEK-293 cell line was incubated for three or more days. Then, 5 μm Fura 2-AM (acetoxymethyl)(calcium indicator, Invitrogen) was loaded on the cells in an imaging buffer solution (NaCl 140 mM, KCl 5 mM, MgCl2 1 mM, CaCl2 2 mM, HEPES 10 mM, Glucose 10 mM, 0.1% Pluronic F-127, pH 7.4). A non-specific esterase residing in the cell performs hydrolysis for an AM ester group to be changed into a form sensitive to Ca^2+ ions. […]
(§3) After three times cleaning using respective solutions, a ligand and ATP (100 uM) for a Ca^2+ dependent fluorescence signal was injected thereto, and, dual stimulations (340 nm, and 380 nm) were applied thereto. Thereafter, a fluorescence signal due to Ca^2+ at 510 nm was measured using a spectrofluorophotometer. The fluorescence signal was obtained at 2 seconds intervals. A final result was shown as a ratio between fluorescence strengths resulting from the dual stimulations.

[4] = target: T3, nanovesicle including TAS1R2 and TAS1R3 (Homo sapiens, UniProt Q7RTX0+Q8TE23); assay: Ca2+ dependent fluorescence signal in nanovesicle separated from transformed HEK-293 cell line; assay type: biochemical; conditions: 10 mM sucrose added, FIG. 2F
T3 construct: HA (N); expressed in transfected cells
T3 sequence (Q8TE23 20-839): T1 sequence (Q8TE23 20-839)
T3 sequence (Q7RTX0 21-852): T1 sequence (Q7RTX0 21-852)
Method: as §1, §2, §3

signal change ([1]; FIG. 4B): no signal change
Structure (SMILES): O=C[C@H](O)[C@@H](O)[C@H](O)[C@H](O)C(=O)O [D-glucuronic acid]

fit of sensor signals to the hill equation model [2]: comply with the hill equation model | sensitivity as a working substance relative to sucrose ([2]; compared with sucrose): more sensitive
Structure (SMILES): COC(=O)[C@H](Cc1ccccc1)NC(=O)[C@@H](N)CC(=O)O [aspartame] (H-Asp-Phe-OMe)

signal change ([1]; FIG. 4B): no signal change
Structure (SMILES): OC[C@H]1O[C@@H](O[C@H]2[C@H](O)[C@@H](O)[C@H](O)O[C@@H]2CO)[C@H](O)[C@@H](O)[C@@H]1O [cellobios]

fit of sensor signals to the hill equation model [2]: comply with the hill equation model
Structure (SMILES): O=C(CO)[C@@H](O)[C@H](O)[C@H](O)CO [fructose]

fluorescence emission strength [3]: relatively increases | fluorescence emission strength [4]: relatively increases | signal generating from the taste sensor (sensitivity ΔG/G0) ([2]; 100 uM concentration): decreases | signal generating from the taste sensor (sensitivity ΔG/G0) ([2]; 500 uM concentration): rapidly decreases | fit of sensor signals to the hill equation model [2]: comply with the hill equation model | reaction magnitude decrease ([1]; 500 uM added, FIG. 4B): about 5% | detection in real samples ([1]; 1 mM concentration, contained in coffee and Darjeeling tea, FIG. 4D): may be detected
Structure (SMILES): OC[C@H]1O[C@@](CO)(O[C@H]2O[C@H](CO)[C@@H](O)[C@H](O)[C@H]2O)[C@@H](O)[C@@H]1O [sucrose]
